The values below come from patent US20050202511A1, “AMP-activated protein kinase (AMPK) inhibitor screening assay” (priority 2002, published 2005).

Like-named read-outs stand apart in the source and are kept apart here.

Experiment [1] addresses T1, CLC2 CBS domain pair G826D (Homo sapiens, UniProt P51788, G828D).
T1 construct: DNAs encoding residues 582-840 of CLC2; made in house; host or cells: E. coli BL21 (DE3)
As to the kind of experiment: Filter binding assay, GST-CBS domain fusion. The following applies: single-site model. The source says: (§1) DNA encoding the CBS domain pair from the chloride channel CLC2 was also cloned and expressed. […] The G715E mutation, in the linker between the first and second CBS domains of CLC2, is associated with idiopathic generalized epilepsy (29), while the G826D mutation is in an equivalent position in the second CBS domain to the G859D mutation in CLC1 that is associated with congenital myotonia (28).
(§2) For IMPDH2, DNAs encoding residues 112-232 or the full-length protein (1-514) were amplified using human liver cDNA (Clontech) as template, and cloned into pHAT20 (Clontech) using 5′-AgeI and 3′-KpnI sites added to the primers. For the other constructs, DNAs encoding residues 582-840 of CLC2, or 416-551 of cystathionine â-synthase, were amplified using human liver cDNA as template, and cloned into pGEX-KG as above using 5′-BamHI and 3′-XhoI sites added to the primers. All mutations were created using the Stratagene QuikChange Site-directed Mutagenesis system.
(§3) Various concentrations of [^14C]-AMP, [γ^32P] […] Reactions were stopped by spotting 10 ìl onto a Millipore MF Filter Membrane disc and rapidly washing under high vacuum with 1 ml of ice-cold TBS. Radioactivity was determined on the filters by scintillation counting. Non-specific binding (which was trivial) was determined by performing the assay with GST as a control, and was subtracted. […]

Experiment [2] deals with T2, CLC2 CBS1-2 (G715E) (Homo sapiens, UniProt P51788, G715E).
T2 construct: DNAs encoding residues 582-840 of CLC2; made in house; host or cells: E. coli BL21 (DE3)
As to the kind of experiment: Filter binding assay, GST-CBS domain fusion. The following applies: single-site model.
From the text: as §1, §2, §3

The target in experiment [3] is T3, IMPDH2 CBS domain pair (wild type) (Homo sapiens, UniProt P12268).
T3 construct: For IMPDH2, DNAs encoding residues 112-232 or the full-length protein (1-514) were amplified; His tag (vector pHAT20); made in house; host or cells: E. coli
Put plainly: Displacement of bound ATP. Format: binding.
Method: ATP or [^35S]SAM were incubated with GST-CBS domain fusions (1 ìM for WT, up to 20 μM for some mutants) for 10 min at 25° C. in a 20 il total volume in TBS. Reactions were stopped by spotting 10 ìl onto a Millipore MF Filter Membrane disc and rapidly washing under high vacuum with 1 ml of ice-cold TBS. Radioactivity was determined on the filters by scintillation counting. Non-specific binding (which was trivial) was determined by performing the assay with GST as a control, and was subtracted. […] Data were fitted to the binding models given in the text, using GraphPad Prism 3.

Experiment [4] concerns the target T4, recombinant á1â1γ2 heterotrimer (H383R) (Homo sapiens, UniProt Q9UGJ0, H383R).
T4 construct: expressed in transfected cells; host or cells: CCL13 cells
As to the kind of experiment: AMPK heterotrimer kinase assay, activation by AMP. Format: biochemical. The following applies: slow lysis; estimate somewhat less accurate; read-out: A0.5. The source says: (§4) Plasmids expressing myc-tagged á1, â1 and γ1, γ2 (with or without WPWS mutations) or γ3 were expressed in CCL13 cells and the recombinant complexes immunoprecipitated using anti-myc antibodies.
(§5) For this reason, the estimates of A0.5 for the H383R and T400N mutants are somewhat less accurate than the others, while no value could be obtained for the R531 G mutant. […] With some mutants, the maximal activation also appeared to be affected.
(§6) PCDNA plasmids (14,25,32) encoding á1, â1 and γ1, γ2 or γ3 were expressed in CCL13 cells (25), subject to “rapid lysis”, immunoprecipitated using anti-myc antibody, and assayed as described previously (33). “Slow lysis” of CCL13 cells was as described by Stein et al (34).

In experiment [5] the target is recombinant á1â1γ2 heterotrimer (Lins) (Homo sapiens, UniProt Q9UGJ0, INS350L). As to the kind of experiment: AMPK heterotrimer kinase assay, activation by AMP. It counts as biochemical. The following applies: immunoprecipitated from CCL13 cells, slow lysis; read-out: A0.5.
From the text: as §4, §5, §6

In experiment [6] the target is T5, recombinant á1â1γ2 heterotrimer (R302Q) (Homo sapiens, UniProt Q9UGJ0, R302Q).
T5 construct: expressed in transfected cells; host or cells: CCL13 cells
As to the kind of experiment: AMPK heterotrimer kinase assay, activation by AMP. It counts as biochemical.
From the text: as §4, §5, §6

In experiment [7] the target is T6, recombinant á1â1γ2 heterotrimer (R531G) (Homo sapiens, UniProt Q9UGJ0, R531G).
T6 construct: expressed in transfected cells; host or cells: CCL13 cells
Put plainly: AMPK heterotrimer kinase assay, activation by AMP. It counts as biochemical.
From the text: as §4, §5, §6

For experiment [8], the target named is T7, recombinant á1â1γ2 heterotrimer (T400N) (Homo sapiens, UniProt Q9UGJ0, T400N).
T7 construct: expressed in transfected cells; host or cells: CCL13 cells
Put plainly: AMPK heterotrimer kinase assay, activation by AMP. Format: biochemical. Particulars: slow lysis; estimate somewhat less accurate; read-out: A0.5.
From the text: as §4, §5, §6

The target of experiment [9] is T8, recombinant á1â1γ1 heterotrimer (Rattus norvegicus, UniProt P80385).
T8 construct: expressed in transfected cells; host or cells: CCL13 cells
As to the kind of experiment: AMPK heterotrimer kinase assay, activation by AMP. It counts as biochemical.
From the text: as §4, §6

For experiment [10], the target named is T9, recombinant á1â1γ3 heterotrimer (Homo sapiens, UniProt Q9UGI9).
T9 construct: expressed in transfected cells; host or cells: CCL13 cells
Put plainly: AMPK heterotrimer kinase assay, activation by AMP. It counts as biochemical.
From the text: as §4, §6

Experiment [11] concerns AMPK. As to the kind of experiment: Activation of AMPK (data not shown). It counts as biochemical. The following applies: read-out: concentration giving half-maximal activation.
Experiment [12] deals with rat liver AMPK. Particulars: read-out: half-maximal effect (A0.5), cited from earlier work.
For experiment [13], the target named is T10, IMPDH2 CBS1-2 (R224P) (Homo sapiens, UniProt P12268, R224P).
T10 construct: DNAs encoding residues 112-232 or the full-length protein (1-514) were amplified; His tag (pHAT20 vector); made in house; host or cells: E. coli
Put plainly: Filter binding assay, isolated CBS domain pair. The following applies: single-site model.
From the text: To examine whether binding of adenine nucleotides is a general function for CBS domains, or is specific to the γ subunits of AMPK, IMP dehydrogenase (IMPDH) was also studied. Retinitis pigmentosa can be caused by an R224P mutation in the second CBS domain of the IMPDH1 isoform (27). However, the IMPDH2 isoform is 84% identical in amino acid sequence with IMPDH1, and the arginine mutated in retinitis pigmentosa is conserved. Because the IMPDH2 isoform is ubiquitously expressed and a suitable cDNA to use as a template for PCR was more readily available, DNA encoding the single pair of CBS domains from human IMPDH2 was cloned, an R224P mutation was created and expressed both the wild type and the mutant as His-tagged proteins in E. coli.
as §2
The IMPDH2 constructs were His-tagged and were purified on chelating-Sepharose (Pharmacia) charged with 50 mM CoCl2 according to manufacturer's instructions.
Various concentrations of [^14C]-AMP, [γ^32P] […] Reactions were stopped by spotting 10 ìl onto a Millipore MF Filter Membrane disc and rapidly washing under high vacuum with 1 ml of ice-cold TBS. Radioactivity was determined on the filters by scintillation counting. Non-specific binding (which was trivial) was determined by performing the assay with GST as a control, and was subtracted. […] Data were fitted to the binding models given in the text, using GraphPad Prism 3. […]

Experiment [14] has as its target T11, AMPK-γ2 CBS1-2 construct (Homo sapiens, UniProt Q9UGJ0).
T11 construct: the N-terminal pair (CBS1-2, residues 274-410); made in house; host or cells: E. coli BL21 (DE3)
Put plainly: Displacement of [14C]AMP by unlabelled MgATP. Format: binding. The following applies: high concentrations of MgATP. The protocol:
This yielded estimates for KdAMP and KdATP of 51 and 180 iM. These are very close to the estimates obtained by direct binding measurements (53 and 175 iÌ).
Various concentrations of [^14C]-AMP, [γ^32P] […] Reactions were stopped by spotting 10 ìl onto a Millipore MF Filter Membrane disc and rapidly washing under high vacuum with 1 ml of ice-cold TBS. Radioactivity was determined on the filters by scintillation counting. Non-specific binding (which was trivial) was determined by performing the assay with GST as a control, and was subtracted. […] Data were fitted to the binding models given in the text, using GraphPad Prism 3. Estimates of parameters resulting from fits are quoted in the text and Table 1±standard error, and the curves shown in figures are theoretical curves obtained using those estimates.

Setting [15] is: immunoprecipitated from CCL13 cells, slow lysis, read-out: A0.5.

T8 sequence (P80385 whole entry): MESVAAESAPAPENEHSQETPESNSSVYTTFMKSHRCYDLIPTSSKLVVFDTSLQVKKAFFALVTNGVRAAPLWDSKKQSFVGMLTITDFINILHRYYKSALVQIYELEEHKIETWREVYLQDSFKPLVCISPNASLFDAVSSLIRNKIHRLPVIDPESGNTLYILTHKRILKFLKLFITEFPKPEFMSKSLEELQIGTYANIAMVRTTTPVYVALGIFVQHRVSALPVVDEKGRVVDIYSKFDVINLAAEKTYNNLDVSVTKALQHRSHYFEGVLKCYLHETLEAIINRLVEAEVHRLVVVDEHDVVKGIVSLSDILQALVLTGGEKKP
T8 sequence (P54645 whole entry partner): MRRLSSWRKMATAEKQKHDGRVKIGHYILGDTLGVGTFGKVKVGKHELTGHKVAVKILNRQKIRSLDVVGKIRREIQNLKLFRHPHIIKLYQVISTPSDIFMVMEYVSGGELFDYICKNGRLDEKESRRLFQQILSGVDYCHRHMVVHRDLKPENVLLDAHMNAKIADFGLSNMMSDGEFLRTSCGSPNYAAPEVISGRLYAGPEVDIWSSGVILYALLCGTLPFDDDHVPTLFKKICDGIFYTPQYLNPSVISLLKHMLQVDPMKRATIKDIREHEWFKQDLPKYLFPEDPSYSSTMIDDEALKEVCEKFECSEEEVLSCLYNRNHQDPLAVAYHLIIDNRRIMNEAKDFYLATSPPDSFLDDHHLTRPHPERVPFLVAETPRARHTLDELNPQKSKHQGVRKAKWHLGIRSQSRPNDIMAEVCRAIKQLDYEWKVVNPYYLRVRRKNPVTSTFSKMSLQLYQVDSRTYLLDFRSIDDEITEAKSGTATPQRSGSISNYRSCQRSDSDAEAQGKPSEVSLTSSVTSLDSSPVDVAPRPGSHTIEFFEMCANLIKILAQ
T8 sequence (P80386 whole entry partner): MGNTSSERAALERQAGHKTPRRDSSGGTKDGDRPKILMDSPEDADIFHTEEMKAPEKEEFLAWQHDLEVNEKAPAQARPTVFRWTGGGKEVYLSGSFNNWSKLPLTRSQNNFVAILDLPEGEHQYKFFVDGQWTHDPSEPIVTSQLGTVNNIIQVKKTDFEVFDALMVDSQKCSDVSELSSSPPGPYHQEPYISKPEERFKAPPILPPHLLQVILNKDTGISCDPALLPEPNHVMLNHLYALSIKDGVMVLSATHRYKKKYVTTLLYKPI
T9 sequence (Q9UGI9 whole entry): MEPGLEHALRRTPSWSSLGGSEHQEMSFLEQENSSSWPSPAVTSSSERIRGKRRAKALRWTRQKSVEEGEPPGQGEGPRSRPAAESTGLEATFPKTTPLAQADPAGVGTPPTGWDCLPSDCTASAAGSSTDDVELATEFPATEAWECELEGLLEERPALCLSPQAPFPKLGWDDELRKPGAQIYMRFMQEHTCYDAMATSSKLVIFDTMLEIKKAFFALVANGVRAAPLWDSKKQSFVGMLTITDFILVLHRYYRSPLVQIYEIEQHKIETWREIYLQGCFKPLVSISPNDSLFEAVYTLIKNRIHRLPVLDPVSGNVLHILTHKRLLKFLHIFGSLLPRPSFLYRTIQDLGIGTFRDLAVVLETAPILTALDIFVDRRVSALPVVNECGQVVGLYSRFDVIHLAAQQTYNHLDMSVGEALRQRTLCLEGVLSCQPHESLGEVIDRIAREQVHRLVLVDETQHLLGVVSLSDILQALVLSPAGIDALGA
T9 sequence (P54645 whole entry partner): as the sequence (P54645 whole entry partner) above
T9 sequence (P80386 2-270 partner limits assumed): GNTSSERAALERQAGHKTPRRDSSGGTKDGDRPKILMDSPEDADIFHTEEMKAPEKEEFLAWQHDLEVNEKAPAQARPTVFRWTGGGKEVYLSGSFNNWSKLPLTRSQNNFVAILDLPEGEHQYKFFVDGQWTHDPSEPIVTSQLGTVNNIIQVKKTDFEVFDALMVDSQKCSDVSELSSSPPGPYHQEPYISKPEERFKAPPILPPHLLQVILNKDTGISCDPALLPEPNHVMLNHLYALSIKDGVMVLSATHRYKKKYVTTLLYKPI
T5 sequence (Q9UGJ0 whole entry R302Q): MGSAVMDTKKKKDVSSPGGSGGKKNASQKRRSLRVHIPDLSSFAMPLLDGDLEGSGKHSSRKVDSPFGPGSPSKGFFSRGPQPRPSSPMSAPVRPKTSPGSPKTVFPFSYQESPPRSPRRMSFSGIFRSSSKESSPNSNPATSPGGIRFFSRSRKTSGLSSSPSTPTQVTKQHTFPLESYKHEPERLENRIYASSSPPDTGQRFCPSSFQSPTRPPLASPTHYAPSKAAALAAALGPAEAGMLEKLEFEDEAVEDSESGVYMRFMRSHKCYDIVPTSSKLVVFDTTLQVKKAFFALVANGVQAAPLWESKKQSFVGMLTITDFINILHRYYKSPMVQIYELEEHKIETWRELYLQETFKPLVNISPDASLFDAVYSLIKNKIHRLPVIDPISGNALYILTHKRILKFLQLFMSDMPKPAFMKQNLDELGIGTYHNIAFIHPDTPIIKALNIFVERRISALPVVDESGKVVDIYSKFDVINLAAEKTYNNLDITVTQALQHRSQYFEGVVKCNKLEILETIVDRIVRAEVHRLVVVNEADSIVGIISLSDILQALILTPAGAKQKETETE
T5 sequence (P54645 whole entry partner): as the sequence (P54645 whole entry partner) above
T5 sequence (P80386 whole entry partner): as the sequence (P80386 whole entry partner) above
T6 sequence (Q9UGJ0 whole entry R531G): as the sequence (Q9UGJ0 whole entry R302Q) above, with Q302R, R531G counted along it
T6 sequence (P54645 whole entry partner): as the sequence (P54645 whole entry partner) above
T6 sequence (P80386 whole entry partner): as the sequence (P80386 whole entry partner) above
T11 sequence (Q9UGJ0 274-410): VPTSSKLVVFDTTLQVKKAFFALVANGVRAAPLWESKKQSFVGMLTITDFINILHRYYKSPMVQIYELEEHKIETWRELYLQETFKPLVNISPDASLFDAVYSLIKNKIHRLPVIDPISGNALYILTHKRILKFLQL
recombinant á1â1γ2 heterotrimer (Lins), sequence (Q9UGJ0 with tags, fused parts or gaps INS350L): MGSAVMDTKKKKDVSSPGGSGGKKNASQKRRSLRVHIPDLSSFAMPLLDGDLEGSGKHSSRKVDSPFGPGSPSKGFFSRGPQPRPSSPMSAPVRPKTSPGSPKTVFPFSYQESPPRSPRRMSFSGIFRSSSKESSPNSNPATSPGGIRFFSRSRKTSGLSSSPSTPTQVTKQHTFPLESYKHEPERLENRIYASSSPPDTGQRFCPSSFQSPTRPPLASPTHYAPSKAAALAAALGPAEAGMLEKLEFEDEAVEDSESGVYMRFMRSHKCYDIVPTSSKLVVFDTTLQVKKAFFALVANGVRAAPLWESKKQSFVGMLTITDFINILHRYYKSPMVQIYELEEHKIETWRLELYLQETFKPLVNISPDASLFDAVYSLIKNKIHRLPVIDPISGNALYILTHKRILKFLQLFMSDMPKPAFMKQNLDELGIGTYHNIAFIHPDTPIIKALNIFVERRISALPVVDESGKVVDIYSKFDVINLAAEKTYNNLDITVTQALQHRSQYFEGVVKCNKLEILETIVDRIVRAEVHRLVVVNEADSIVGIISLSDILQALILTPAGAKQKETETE
T1 sequence (P51788 582-840 G828D): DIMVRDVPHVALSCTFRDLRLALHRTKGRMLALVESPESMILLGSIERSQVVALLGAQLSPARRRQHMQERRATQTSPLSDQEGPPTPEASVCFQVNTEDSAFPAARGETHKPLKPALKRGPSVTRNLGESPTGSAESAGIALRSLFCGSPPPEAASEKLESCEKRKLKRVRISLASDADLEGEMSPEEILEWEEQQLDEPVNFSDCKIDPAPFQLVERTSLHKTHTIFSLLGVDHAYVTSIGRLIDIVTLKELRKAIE
T10 sequence (P12268 112-232 R224P): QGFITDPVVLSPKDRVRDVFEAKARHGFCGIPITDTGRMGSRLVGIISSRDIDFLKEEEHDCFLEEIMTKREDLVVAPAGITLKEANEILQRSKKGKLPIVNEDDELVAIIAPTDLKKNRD
T4 sequence (Q9UGJ0 whole entry H383R): as the sequence (Q9UGJ0 whole entry R302Q) above, with Q302R, H383R counted along it
T4 sequence (P54645 whole entry partner): as the sequence (P54645 whole entry partner) above
T4 sequence (P80386 whole entry partner): as the sequence (P80386 whole entry partner) above
T2 sequence (P51788 582-840 G715E): as the sequence (P51788 582-840 G828D) above, with G134E, D247G counted along it
T3 sequence (P12268 112-232): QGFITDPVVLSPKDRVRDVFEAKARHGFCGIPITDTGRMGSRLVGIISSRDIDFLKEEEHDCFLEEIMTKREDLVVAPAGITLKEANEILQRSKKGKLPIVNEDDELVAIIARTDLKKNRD
T7 sequence (Q9UGJ0 whole entry T400N): as the sequence (Q9UGJ0 whole entry R302Q) above, with Q302R, T400N counted along it
T7 sequence (P54645 whole entry partner): as the sequence (P54645 whole entry partner) above
T7 sequence (P80386 whole entry partner): as the sequence (P80386 whole entry partner) above

One may read the Kd as a measure of binding affinity in units of concentration. A low value points to a tighter complex. As for `Nc1ncnc2c1ncn2[C@@H]1O[C@H](COP(=O)(O)O)[C@@H](O)[C@H]1O` [AMP, adenosine monophosphate], the Kd in [1] was found to be 14300 ± 550 µM; in [2], 10400 ± 1300 µM; in experiment [3] it was 440 µM. In addition, the EC50 is 51 ± 40 µM in [4]; 9 ± 4 µM in experiment [5]; 23 ± 6 µM in experiment [6] (setting [15]); greater than 100 µM in experiment [7] (read-out: A0.5); 95 ± 32 µM in experiment [8]; 13 ± 2 µM in experiment [9] (setting [15]). The EC50 was 2 ± 2 µM in [10] (approximate only, read-out: A0.5); 4.7 µM in [11]; 4.4 µM in [12] (assays in 200 μM ATP); 29 µM in experiment [12] (at 4 mM ATP). For the same compound, the “stimulation by AMP” value in experiment [6] stood at 3 fold; in experiment [9] it was 3.3 fold; in experiment [10], 1.5 fold. Also, the “effect of adding AMP on activity” value in [7] is listed as “inhibited”.

For the compound `Nc1ncnc2c1ncn2[C@@H]1O[C@H](COP(=O)(O)OP(=O)(O)OP(=O)(O)O)[C@@H](O)[C@H]1O` [ATP], binding in experiment [13] was put at a Kd of 450 ± 36 µM. The “displacement of [14C]AMP binding” value in [14] is given as “completely displaced”.
